Patent EP0719267B1, “SECOND MESSENGER CELL SIGNALING INHIBITORS” (CELL THERAPEUTICS, INC., priority 1993, dated 1994)

Tests used:
[1] = test system: human aortic smooth muscle cells (aortic SMC); test: Growth factor-induced proliferation of aortic smooth muscle cells; format: cell-based; conditions: 5 µM
Protocol: 58. One assay was used for investigating effects on PDGF-induced proliferation of human aortic smooth muscle cells (aortic SMC). Cells, purchased from a commercial supplier (Cell Systems, Inc., Seattle, WA), were cultured with various concentrations of PDGF-BB with and without addition of compound no. 58 (5 µM). […] 58 inhibited PDGF-induced proliferation even at high PDGF concentrations providing maximum proliferative stimulation. In addition, some cultures were treated 1 hour prior to PDGF stimulation with inventive compound no. 58. As shown, PDGF stimulated proliferation in this cell line. Addition of 5 µM of compound no. […] 58 were observed.
Another assay was used for investigating inhibitory effects of inventive compound no. 58 on either basic or acidic FGF-induced proliferation in human aortic smooth muscle cells (aortic SMC). Disregulated bFGF- or aFGF-induced proliferation is linked to SMC proliferation and neointimal occlusion in atherogenesis and restenosis and plays a role in autocrine and paracrine stimulation of tumor cells and tumor cell-induced angiogenesis. In this assay, cells were grown in reduced serum (0.5% fetal calf serum) for 24 hours prior to stimulating with various concentrations of […]. Cells were stimulated with various concentrations overnight of either aFGF or bFGF, adding 5µM of compound no. 58 in selected cultures. Compound no. […] Results shown in figure 20A (aFGF) and figure 20B (bFGF) illustrate the degree of inhibition.
Figures 65A-65F illustrate inhibition of proliferation in either human aortic or pulmonary smooth muscle cells (SMC) by inventive compound no. 58. Procedurally, cells were cultured in 0.5% serum containing medium 24 hours prior to stimulation with various concentrations of either PDGF (figs. 65A and 65B), acidic FGF (figs. 65C and 65D) or basic FGF (figs. 65E and 65F). Cells were stimulated for 24 hours prior to labeling with ^3H-TdR for 4 hours and harvested and counted by scintillation. Compound no. 58 was added 1 hour prior to stimulation at a concentration of 5 µM. Even at points of maximum stimulation of the growth factors, compound no. […] In addition cell number was assessed and those treated with compound no.

[2] = test system: Balb/3T3 cells; test: Cytotoxicity to PDGF-stimulated Balb/3T3 cells (BCECF); format: cell-based; conditions: fig. 66B
Protocol: LD50 values were determined using a cytotoxicity assay, as in Example 32. In these assays, Balb/3T3 cells, stimulated with PDGF and treated with one of the above inventive compounds in a manner identical to the tritiated thymidine procedure above, were incubated instead with a viable dye BCECF, a fluorescent dye. Fluorescence was measured using a fluorescent plate reader.

[3] = test system: murine cytotoxic T-cell line, CT6; test: Cytokine-induced proliferation of the cytotoxic T-cell line CT6 / CT-6.1; format: cell-based; conditions: for IC50: Mus musculus, T-cell, CT-6.1 cells; for inhibition of direct IL-2-induced proliferation: added one hour prior to IL-2, thymidine at 48 hours
Summary of the method: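 IL-2-dependent murine CT6/CT-6.1 cells deprived of IL-2 (24 h or overnight), then stimulated with IL-2 (15 U/ml or 20 ng/ml), IL-4 (50 ng/ml) or IL-7 (25 ng/ml) with compound at various concentrations. Proliferation by ³H-TdR incorporation (4 h pulse from 20 h, or at 48 h); viable counts up to 8 days with 2 µM compound.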

[4] = test system: IL-2 (alpha chain CD25) receptor; test: IL-2 receptor expression on anti-CD3 stimulated splenocytes (flow cytometry); format: cell-based, mouse; conditions: anti-CD3 1 µg/ml, 24 hours, 1 µM
Protocol: This investigation illustrates IL-2 (alpha chain CD25) receptor expression on mouse splenoyctes. The IL-2 receptor is not expressed on resting T-cells, but is rapidly-induced by certain stimulants, e.g. antigen recognition or treatment with ConA or antibodies to CD3 (anti-CD3). IL-2-dependent proliferation requires IL-2 receptor expression. […] 49 (1 µM). Following overnight incubation, the splenocytes were stained with a fluoresceinated anti-IL-2 receptor antibody and fluorescence measured by flow cytometry. Figures 5A and 5B are frequency histograms of measurements for 20,000 cells per sample.
In another assay, inventive compound no. […] Murine splenocytes were activated for 24 hours with anti-CD3 (1 µg/ml), stained with a fluorescent antibody to CD25 and analyzed by flow cytometry.

[5] = test system: murine splenocyte proliferation; test: Splenocyte (B cell) proliferation stimulated by anti-mu/anti-IgM and IL-4; format: cell-based; conditions: Mus musculus, anti-IgM antibodies (10 µg/ml) and murine IL-4 (12.5 ng/ml)
Protocol: This example illustrates inhibitive effects of compounds nos. 27 and 28 on murine splenocyte proliferation stimulated by anti-mu ([…]) and interleukin-4 (IL-4, 12.5 ng/ml). This in vitro assay, described above, is indicative of immune-suppressive/autoimmune treatment assay emphasizing humoral or B cell immune response. The inventive compound was added to the cells at the doses indicated two hours prior to activation with anti-mu and IL-4. Both compounds nos. 27 and 28 inhibited splenocyte proliferation in a dose-response manner. IC50 values for compounds nos. Background counts were less than 200 cpm.
In figure 57, results shown illustrate that inventive compound no. 45 inhibits B cell proliferation. Murine splenocytes were stimulated with anti-IgM antibodies (10 µg/ml) and murine IL-4 (12.5 ng/ml). Cells were pulsed with ^3HTdR at 44 hours, harvested 4 hours later, and the incorporation of ^3H-TdR was determined by liquid scintillation.

[6] = test system: murine splenocytes; test: Anti-CD3 priming followed by IL-2 restimulation of splenocytes; format: cell-based; conditions: 1 µM
Protocol: 53A. […] The cells were pulsed with ^3H-TdR for 4 hours and harvested and incorporation of ^3H-TdR determined.

[7] = test system: IL-2; test: IL-2 production in thymocytes stimulated with ConA and IL-1 (ELISA); format: cell-based, murine; conditions: ConA and IL-1, 4 days
Excerpt: Thymocytes were stimulated with ConA and IL-1 for 4 days with or without adding inventive compounds to the culture media. The supernatants were removed and assayed by ELISA for IL-2 levels by a commercially available kit.

| Compound | inhibition of PDGF-induced proliferation [1] | inhibition of aFGF- and bFGF-induced proliferation [1] | toxic effects [1] | inhibition of proliferation at maximum stimulation by PDGF, acidic FGF or basic FGF ([1]; added 1 hour prior) | cell number following growth factor stimulation ([1]; aortic and pulmonary SMC) | cytotoxicity [2] | proliferation measured by cell number ([3]; CT6.1 cells, IL-2, 2 µM, up to 8 days) | reversibility of the effect ([3]; CT6.1 cells, washed on day 4) | IC50 ([3]; IL-2 (20 ng/ml), fig. 46) [nM] | IC50 ([3]; IL-2 (20 ng/ml), fig. 48) [nM] | IC50 ([3]; IL-4 (50 ng/ml)) [nM] | IC50 ([3]; IL-7 (25 ng/ml)) [nM] | inhibition of direct IL-2-induced proliferation [3] | CD-25 receptor upregulation [4] | IC50 [5] [nM] | proliferation of anti-CD3 primed splenocytes, compound present with IL-2 [6] | response to IL-2 after compound present during anti-CD3 incubation [6] | IL-2 production [7] |
| --- | --- | --- | --- | --- | --- | --- | --- | --- | --- | --- | --- | --- | --- | --- | --- | --- | --- | --- |
| COc1cc(CNCC(O)CCCCCCCCCn2c(=O)c3c(ncn3C)n(C)c2=O)cc(OC)c1OC (stereo not shown) [compound no. 58, 1-[11-(3,4,5-Trimethoxybenzylamino)-10-hydroxyundecyl]-3,7-dimethylxanthine] | blocked PDGF-stimulated proliferation | a potent inhibitor of both aFGF- and bFGF-induced proliferation | No toxic effects | completely inhibited cellular proliferation in both aortic and pulmonary SMC | showed no increase in cell number following growth factor stimulation | not cytotoxic to Balb/3T3 cells | – | – | – | – | – | – | – | – | – | – | – | – |
| CCCCCCCCNCC(O)CCCCCCCCCn1c(=O)c2c(ncn2C)n(C)c1=O (stereo not shown) [compound no. 45] | – | – | – | – | – | – | inhibits proliferation as measured by cell number | reversible even after 4 days in culture | ~800 | < 1000 | < 1000 | < 1000 | inhibited direct IL-2-induced CT6 proliferation | did not inhibit CD-25 (p55) receptor upregulation by anti-CD3 | 1200 | proliferation was inhibited | did not block the splenocyte's ability to respond to IL-2 | – |
| CCCCCCCCCCCCNCC(O)CCCCCCCCCn1c(=O)c2c(ncn2C)n(C)c1=O (stereo not shown) [compound no. 50, 1-(11-Dodecylamino-10-hydroxyundecyl)-3,7-dmethylxanthine] | – | – | – | – | – | – | – | – | – | – | – | – | inhibited direct IL-2-induced CT6 proliferation | – | – | – | – | do not inhibit production of IL-2 |
